This is an account of results in ChEMBL document CHEMBL1201862, “PubChem BioAssay data set” (2004).

The source made the active and inactive calls. For most assays here, no stated cut-off is given here; in the data, actives have a measured EC50 and inactives only a lower limit. A value given as a limit tells only on which side of the number the result lay.

One test concerns the target T1, Protein RecA (Mycobacterium tuberculosis, UniProt P9WHJ3).
T1 sequence (P9WHJ3 whole entry): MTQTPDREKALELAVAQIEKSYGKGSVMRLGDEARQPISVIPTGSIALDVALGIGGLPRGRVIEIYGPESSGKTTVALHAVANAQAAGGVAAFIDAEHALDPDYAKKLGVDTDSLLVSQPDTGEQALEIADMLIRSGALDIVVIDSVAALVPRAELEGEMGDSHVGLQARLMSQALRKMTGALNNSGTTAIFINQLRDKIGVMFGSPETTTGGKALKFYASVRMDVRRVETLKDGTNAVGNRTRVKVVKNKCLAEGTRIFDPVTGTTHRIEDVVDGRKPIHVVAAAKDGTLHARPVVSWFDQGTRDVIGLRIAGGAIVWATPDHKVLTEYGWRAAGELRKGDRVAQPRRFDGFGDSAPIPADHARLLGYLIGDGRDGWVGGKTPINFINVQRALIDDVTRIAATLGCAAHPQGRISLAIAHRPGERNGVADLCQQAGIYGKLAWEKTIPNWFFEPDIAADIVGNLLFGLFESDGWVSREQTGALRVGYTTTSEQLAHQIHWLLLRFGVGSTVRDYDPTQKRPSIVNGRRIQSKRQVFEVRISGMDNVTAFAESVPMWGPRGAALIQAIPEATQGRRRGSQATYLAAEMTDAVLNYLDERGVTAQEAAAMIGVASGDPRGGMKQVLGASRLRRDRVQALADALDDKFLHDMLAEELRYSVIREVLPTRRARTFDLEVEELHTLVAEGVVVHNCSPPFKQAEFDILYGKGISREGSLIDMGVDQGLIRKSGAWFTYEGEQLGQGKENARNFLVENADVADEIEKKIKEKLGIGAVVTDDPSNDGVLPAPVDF
As to the kind of experiment: Fluorescence Cell-Free Homogeneous Dose Retest to Identify Inhibitors of RecA-Intein Splicing Activity. [Related pubchem assays (depositor defined):AID2097, AID2223, AID489010, AID492950]. It counts as functional.

The target of test [1] is T2, Replicative DNA helicase DnaB (Mycobacterium tuberculosis, UniProt P9WMR3).
T2 sequence (P9WMR3 whole entry): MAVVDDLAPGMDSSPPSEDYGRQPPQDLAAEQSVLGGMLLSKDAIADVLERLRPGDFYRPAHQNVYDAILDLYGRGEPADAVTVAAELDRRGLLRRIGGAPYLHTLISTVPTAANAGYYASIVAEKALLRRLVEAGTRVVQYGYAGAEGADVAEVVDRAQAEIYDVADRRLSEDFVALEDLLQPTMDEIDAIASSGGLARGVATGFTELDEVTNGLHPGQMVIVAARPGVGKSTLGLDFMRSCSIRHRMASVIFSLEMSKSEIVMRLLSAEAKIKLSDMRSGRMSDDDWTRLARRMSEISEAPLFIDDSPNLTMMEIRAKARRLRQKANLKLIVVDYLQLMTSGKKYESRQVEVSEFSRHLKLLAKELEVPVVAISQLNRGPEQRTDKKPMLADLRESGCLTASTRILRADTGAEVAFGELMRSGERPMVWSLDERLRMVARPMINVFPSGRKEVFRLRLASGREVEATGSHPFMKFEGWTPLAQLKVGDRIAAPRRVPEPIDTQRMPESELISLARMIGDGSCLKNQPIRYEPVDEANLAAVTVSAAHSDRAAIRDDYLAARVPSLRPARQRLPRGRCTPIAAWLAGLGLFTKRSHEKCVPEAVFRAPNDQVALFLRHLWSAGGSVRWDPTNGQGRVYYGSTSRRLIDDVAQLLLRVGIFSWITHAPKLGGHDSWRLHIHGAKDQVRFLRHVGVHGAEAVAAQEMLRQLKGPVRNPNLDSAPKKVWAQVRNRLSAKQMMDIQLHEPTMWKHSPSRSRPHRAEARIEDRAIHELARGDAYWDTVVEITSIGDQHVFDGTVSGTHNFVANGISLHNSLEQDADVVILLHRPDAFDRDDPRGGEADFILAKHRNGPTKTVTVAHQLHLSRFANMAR
As to the kind of experiment: DnaB intein splicing inhibitors, dose response, biochemical, cell-free fluorescence (AID 449749). The test is classed as functional.

The next test deals with H9c2. As to the kind of experiment: cells. It counts as functional, cell-based. The settings on record: Rattus norvegicus, H9c2, Myocardium.
A further test has as its target T3, Streptokinase A (Streptococcus pyogenes serotype M1, UniProt P10520).
T3 sequence (P10520 whole entry): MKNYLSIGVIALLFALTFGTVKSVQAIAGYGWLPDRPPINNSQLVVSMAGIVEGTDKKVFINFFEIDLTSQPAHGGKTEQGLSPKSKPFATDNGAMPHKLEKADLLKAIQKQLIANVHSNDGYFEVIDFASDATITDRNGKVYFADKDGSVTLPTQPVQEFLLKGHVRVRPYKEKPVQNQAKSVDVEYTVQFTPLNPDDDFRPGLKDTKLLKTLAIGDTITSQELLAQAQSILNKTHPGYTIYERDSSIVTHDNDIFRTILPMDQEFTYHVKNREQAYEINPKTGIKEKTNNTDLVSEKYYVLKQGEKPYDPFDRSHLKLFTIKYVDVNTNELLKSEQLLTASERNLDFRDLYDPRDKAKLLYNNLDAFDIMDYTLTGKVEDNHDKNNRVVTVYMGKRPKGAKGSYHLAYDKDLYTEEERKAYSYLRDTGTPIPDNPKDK
As to the kind of experiment: viability-normalized secreted streptokinase activity reduction – plasminogen activation absorbance, OD405, dose response (AID 1914).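 Further: secreted streptokinase activity via plasminogen activation per viability signal from cell pellet.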 It counts as functional, Streptococcus pyogenes M1 GAS.

Test [2] relates to Streptococcus sp. 'group A'. As to the kind of experiment: Streptococcus pyogenes SK(-)GAS viability under kanamycin – luminescence, BacTiterGlo, confirmation, counter-screen for streptokinase expression inhibitor project, dose response (AID 1900). The test is classed as functional, organism-based.
The test system of a further test is Streptococcus. As to the kind of experiment: GAS UMAA2166 growth inhibition – luminescence, BacTiterGlo, counter-screen for streptokinase expression inhibitor project, dose response (AID 1915).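 Further: potency for reduction of bacterial viability or growth.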 It counts as functional, organism-based. For orientation: Counterscreens check selectivity or assay interference.
The target in test [3] is T4, Corticotropin-releasing factor receptor 2/Corticotropin-releasing factor-binding protein (Homo sapiens, UniProt P24387+Q13324).
T4 sequence (Q13324 whole entry): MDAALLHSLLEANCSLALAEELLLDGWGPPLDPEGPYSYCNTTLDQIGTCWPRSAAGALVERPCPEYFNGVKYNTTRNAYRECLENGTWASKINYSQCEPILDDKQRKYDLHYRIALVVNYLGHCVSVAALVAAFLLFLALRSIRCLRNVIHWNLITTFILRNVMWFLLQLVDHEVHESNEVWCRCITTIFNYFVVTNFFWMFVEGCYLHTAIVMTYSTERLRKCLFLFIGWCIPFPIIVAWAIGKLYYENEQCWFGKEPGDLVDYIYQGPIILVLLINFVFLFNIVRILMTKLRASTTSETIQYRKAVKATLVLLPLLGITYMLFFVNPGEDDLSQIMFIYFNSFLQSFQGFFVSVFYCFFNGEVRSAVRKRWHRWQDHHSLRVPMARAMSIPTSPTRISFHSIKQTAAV
T4 sequence (P24387 whole entry): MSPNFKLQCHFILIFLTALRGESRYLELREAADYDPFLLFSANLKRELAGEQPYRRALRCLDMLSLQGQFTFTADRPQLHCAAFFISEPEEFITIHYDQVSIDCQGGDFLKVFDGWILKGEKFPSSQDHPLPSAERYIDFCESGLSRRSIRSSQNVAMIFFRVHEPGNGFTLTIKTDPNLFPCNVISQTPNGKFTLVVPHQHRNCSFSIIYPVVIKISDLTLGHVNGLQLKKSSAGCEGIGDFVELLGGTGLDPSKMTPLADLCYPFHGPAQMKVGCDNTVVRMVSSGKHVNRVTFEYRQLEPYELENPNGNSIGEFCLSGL
As to the kind of experiment: activators of CRF receptor 2 with binding protein – uHTS hits, confirmation (AID 602473). It counts as functional. The following applies: read-out: EC50_Mean.
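Wherever IC50 is given: confirmatory concentration-response retest of ultra-high-throughput screening hits for modulation of myocardial damage; cell death induced by hydrogen peroxide oxidative stress; compound pretreatment for 60 min then peroxide exposure for 2 h; potency is for protecting the cells against peroxide damage rather than for killing them.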

On to `O=C1CC/[N+](=C\c2ccccc2Cl)[N-]1`, for which, at Protein RecA, the EC50 was 4.02 µM (active). For the same molecule, the AC50 in test [1] is 7.23 µM (active).
Turning to `N#Cc1cnn2cc(-c3ncc(C(F)(F)F)cc3Cl)cnc12`, the IC50 in the test with H9c2 was > 79 µM (inactive).
Turning to `Cc1cc2ccccc2c(O)n1`, the half-maximal inhibitory concentration (IC50) with H9c2 was 23.5 µM (active).
On to `Cc1nc(SCC(=O)NCc2ccc(F)cc2)c2c(=O)n(C)c(=O)n(C)c2n1`, for which the IC50 in the test on H9c2 is > 79 µM (inactive).
The same measure, in the same setting: the result for `CCn1c(=O)cc(OCC(=O)Nc2ccccc2C#N)c2ccccc21` reads 18.1 µM (active).
Regarding `Cn1c(N)c(C(=O)COC(=O)/C=C/c2ccc(OC(F)F)cc2)c(=O)n(C)c1=O`, the EC50 on Streptokinase A is > 150 µM (not active); in test [2], 3.34 µM (active); in the test with Streptococcus it was 13.4 µM (active).
For the molecule `O=C(O)c1nn(CCOc2ccc(Br)cc2)c(=O)c2ccccc12`, the IC50 with H9c2 was > 79 µM (inactive).
Same read-out and setting: under `N#Cc1ccccc1S(=O)(=O)N1CCN(c2nc(-c3cccnc3)nc3ccccc23)CC1` stands 27.7 µM (active); under `Cc1cc(N)n(-c2nc(-c3cccnc3)nc3ccccc23)n1`, 11.6 µM (active).
Turning to `Cc1ccc(N2C(=O)C3CC(c4ccccc4)=C4C5C=CC(C6C(=O)N(c7ccc(C)cc7)C(=O)C56)C4C3C2=O)cc1` (stereo not drawn), the results for the EC50 (on Streptokinase A; in test [2]; in the test with Streptococcus) were > 150 µM (not active), 1.41 µM (active) and 30.9 µM (active), respectively.
Take `CC1C2=C(O)CC(C)(C)CC2=NC2=C1C(=O)CC(C)(C)C2` (stereo not drawn): the EC50 in test [3] was > 53 µM (inactive).
As for `CC(=O)NC1N=C(C)N(c2ccccc2)C1=O` (stereo not drawn), the EC50 on Protein RecA was 10.7 µM (active). Moreover, in test [1], the half-maximal activity concentration (AC50) was 4.66 µM (active).
Take `O=c1c2ccccc2c(-c2ccccc2)nn1Cc1c(Cl)cccc1Cl`: the EC50 on Streptokinase A was 17 µM (active); in test [2], 7.76 µM (active); in the test with Streptococcus it was > 150 µM (not active).
Regarding `CN(C)C(=S)N=Nc1[nH]c2ccccc2c1O`, the EC50 at Protein RecA was 6.07 µM (active). In addition, in test [1], the AC50 is 10.7 µM (active).
For `COc1cccc(-c2[nH]nc3c2C(c2ccsc2)C(C#N)=C(N)O3)c1` (stereo not drawn) the same measures were 0.52 µM (active) and 2 µM (active).
For the molecule `CC1CCCC(C)N1C(=O)CSc1nc(O)c2ccccc2n1` (stereo not drawn), the IC50 in the test with H9c2 was > 79 µM (inactive).
Consider `O=C(CSc1nnc(Cc2ccccc2)o1)Nc1cccc(F)c1`, for which the EC50 on Protein RecA was 86.1 µM (active). For the same molecule, the AC50 in test [1] was 71.3 µM (active).
For the molecule `COC(=O)c1ccc(N2CCN(C)CC2)c(NC(=O)COc2ccc(C)cc2)c1`, the EC50 (on Streptokinase A; in test [2]; with Streptococcus) was > 150 µM (not active) each time.
Regarding `CC(C)COc1nc2ccccc2c(=O)n1OCC(=O)O`, in the test with H9c2, the IC50 is > 79 µM (inactive).
Still for that read-out and setting: under `COc1ccc(OC)c(N(CC(=O)Nc2cccnc2)S(=O)(=O)c2ccc(OC)c(OC)c2)c1` stands 12 µM (active).
For `Oc1nc(Nc2ccc(F)cc2)sc1/C=C1\C=Nc2ccccc21`, the EC50 on Streptokinase A was > 150 µM (not active); in test [2], 7.02 µM (active); in the test on Streptococcus it was 18.4 µM (active).
Take `CS(=O)(=O)C1=NSC2=NC(=O)/C(=C\c3ccc(OC(=O)c4ccco4)cc3)C(=N)N21`: the EC50 on Protein RecA was 16 µM (active). Further, the AC50 in test [1] is > 120 µM (inactive).
With `COc1ccc(C(=O)NNC(=O)CCc2nc(O)c3ccccc3n2)cc1`, the IC50 in the test on H9c2 is 26 µM (active).
The same measure, in the same setting: the result for `N#CCCN(C(=O)COC(=O)CCc1nc(O)c2ccccc2n1)c1ccccc1F` reads 13 µM (active); that for `COc1cc(/C=N/NC(=O)c2ccccc2)ccc1OS(=O)(=O)c1ccccc1`, > 79 µM (inactive).
As for `O=S(=O)(/N=C(\c1ccc(F)cc1)N1CCOCC1)c1ccccc1`, the EC50 in test [3] was > 53 µM (inactive).
For `O=C(CN(c1cccc(Br)c1)S(=O)(=O)c1ccccc1)N/N=C/c1cc([N+](=O)[O-])ccc1O`, the EC50 in test [2] was 0.364 µM (active); in the test on Streptococcus it was 0.587 µM (active); at Protein RecA, > 380 µM (inactive). Further, the AC50 in test [1] was > 380 µM (inactive).
Consider `CCOC(=O)C1=c2/c(=C/c3ccncc3)c(N)c(C(=O)OC)n2C(=O)C(c2ccncc2)S1` (stereo not drawn), for which the IC50 in the test on H9c2 is > 79 µM (inactive).
On to `CCc1ccc(/C=N/n2c(S)nnc2C2CCCCC2)cc1`, for which the EC50 on Streptokinase A is > 150 µM (not active); in test [2], 11.1 µM (active); with Streptococcus, 15.1 µM (active).
Taken in the same sequence, the figures for `C/C(=N/Nc1nc(-c2ccccc2F)nc2ccccc12)c1ccccc1O` were > 150 µM (not active), 10.2 µM (active) and > 150 µM (not active).

The AC50 is the concentration giving half of the maximal activity seen. The term IC50 denotes the midpoint of a concentration-inhibition curve.
